In patent US7053175B1, “Synthetic peptides useful in biological assays for detecting infections caused by group O HIV-1 viruses” (Bio-Rad Pasteur, priority 1997, dated 2006):

System: sera from patients infected with group O HIV-1 retroviruses
Experiment: Immunoenzymatic test: Test No. 1 (immunoreactivity of peptides coated on microplates)
Assay type: binding, human
Set-up: key to ABSORBANCE: >: signal greater than the reading capacity of the spectrophotometer
Settings: for ABSORBANCE: cyclized peptide 2 μg/ml
Description: The sera used ESS, DUR, VAU and HAD are sera from French patients infected with group O HIV-1 retroviruses. The other serum samples from patients infected with group O HIV-1 retroviruses were obtained by the Yaoundé Pasteur Centre in Cameroon and were serotyped group O according to the serological algorithm described in AIDS (1977), 11, pp 445-453.
The HIV-negative sera (n=48) were obtained from healthy volunteers.
The synthetic peptides used were dissolved in water at a concentration of 1 mg/ml (stock solution). For the solid phase sensitization step (coating), 110 μl of a solution at 2 μg/ml of each peptide (obtained by diluting the stock solution with 0.1 M carbonate buffer solution) were added to each well of the microtitre plates Microtiter™ (NUNC). After incubating overnight at room temperature, the microplates were first washed with a Tris-NaCl buffer solution pH 7.4 containing 0.1% of Tween® 20 and 0.001% sodium merthiolate, and then saturated with a PBS solution containing 0.5% of Régilait™ (dried skimmed milk). After aspirating the saturating solution, the plates were heated for 10 min at 50° C.
The serum samples were diluted 1/5 with a skimmed milk solution (citrate buffer supplemented with 0.01% of phenol red, 0.25% of chloroform and 0.25% of Kathon®), deposited in the wells of the plates and incubated for 30 min at 40° C.
After washing with a Tris-NaCl buffer solution pH 7.4 containing 0.1% of Tween® 20 and 0.001% of sodium merthiolate, 100 μl of a solution of conjugate consisting of horseradish peroxidase-labelled anti-human IgG and IgM goat antibodies, containing as preservative 0.01% of sodium merthiolate, in solution in a citrate buffer solution supplemented with 30% glycerol and 25% normal foetal calf serum, were added to each plate well and then the plates were incubated for 30 min at 40° C.
After washing with a Tris-NaCl buffer solution pH 7.4 containing 0.1% of Tween® 20 and 0.001% of sodium merthiolate, the colour was developed by adding, to each well, 100 μl of O-phenylenediamine in solution in hydrogen peroxide. The microplates were then incubated for 30 min at room temperature and in the dark. The coloured reaction was then stopped by addition of 100 μl of 4N sulphuric acid. The absorbance (A) was determined at 490 and 620 nm.
The relative absorbance (A490-A620) read in each well is proportional to the immunoreactivity of each peptide. It indicates the ability of each peptide to react with the biological sample with which the test is carried out. The cut-off value was determined as being an absorbance equal to 0.15. It corresponds to the mean of the negative values (n=48) plus 12 standard deviations.
The reactivity of the peptides of the invention (peptide No. 3 (4B), peptide No. 2 (3B) and peptide No. 1 (2B), all in cyclized form), was compared with that of two synthetic peptides having, as sequence, a portion of the natural sequence of the envelope (env) of the VAU isolate (group O HIV-1 retrovirus) and comprising an immunodominant epitope of gp41.
For the study, these peptides were used in cyclized form.

Sequence: LLSLWGCRGRLVCYTSVQWNET [PEPTIDE No. 2 (3B)]
- ABSORBANCE (serum 134): >
- ABSORBANCE (serum 402): >
- ABSORBANCE (serum 625): >
- ABSORBANCE (serum 1062): >
- ABSORBANCE (serum 1105*): 1.031
- ABSORBANCE (serum 1581): >
- ABSORBANCE (serum 1702): >
- ABSORBANCE (serum 1754): >
- ABSORBANCE (serum 2294): >
- ABSORBANCE (serum 2312): >
- ABSORBANCE (serum 2313): >
- ABSORBANCE (serum 2352): >
- ABSORBANCE (serum 2551): >
- ABSORBANCE (serum 2700): 0.274
- ABSORBANCE (serum 3016): >
- ABSORBANCE (serum 3136): 0.992
- ABSORBANCE (serum 3235): >
- ABSORBANCE (serum 3236): >
- ABSORBANCE (serum 3302): >
- ABSORBANCE (serum 3482): >
- ABSORBANCE (serum 3529): >
- ABSORBANCE (serum 3600*): >
- ABSORBANCE (serum 3627*): >
- ABSORBANCE (serum 3637): >
- ABSORBANCE (serum 3653): >
- ABSORBANCE (serum 3771): >
- ABSORBANCE (serum 3884*): >
- ABSORBANCE (serum 3891): >
- ABSORBANCE (serum 3935): 0.893
- ABSORBANCE (serum 3945): >
- ABSORBANCE (serum 4021*): 0.119
- ABSORBANCE (serum 4288*): >
- ABSORBANCE (serum 4364): >
- ABSORBANCE (serum 4434): >
- ABSORBANCE (serum 4477): >
- ABSORBANCE (serum 4489*): >
- ABSORBANCE (serum 5149*): >
- ABSORBANCE (serum 5164): >
- ABSORBANCE (serum 5210): >
- ABSORBANCE (serum 5270*): >
- ABSORBANCE (serum 5373): >
- ABSORBANCE (serum 5453): 0.081
- ABSORBANCE (serum 5766*): >
- ABSORBANCE (serum 5931): >
- ABSORBANCE (serum 5969*): 0.282
- ABSORBANCE (serum 6111): >
- ABSORBANCE (serum 6165): >
- ABSORBANCE (serum 6198*): >
- ABSORBANCE (serum 6295*): 1.063
- ABSORBANCE (serum 6487): 1.017
- ABSORBANCE (serum 6512*): 0.785
- ABSORBANCE (serum 6627): >
- ABSORBANCE (serum 6689*): >
- ABSORBANCE (serum 6697): >
- ABSORBANCE (serum 6782): 2.091
- ABSORBANCE (serum 6891): 0.614
- ABSORBANCE (serum 6976*): >
- ABSORBANCE (serum 6998): >
- ABSORBANCE (serum 7007): 2.334
- ABSORBANCE (serum 7120): >
- ABSORBANCE (serum 7212): >
- ABSORBANCE (serum 7258*): >
- ABSORBANCE (serum 7297*): >
- ABSORBANCE (serum 7439): >
- ABSORBANCE (serum 7443): >
- ABSORBANCE (serum DUR*): >
- ABSORBANCE (serum ESS*): >
- ABSORBANCE (serum HAD): 0.518
- ABSORBANCE (serum VAU*): >
- immunoreactivity compared with the other peptides (in words) (summary of Table IV): more immunoreactive than the VAU 22 AA peptide
